# In paper PMC12136037, “Type II kinase inhibitors that target Parkinson’s disease–associated LRRK2” (Science Advances, 2025):
# pEC50: −log10 of the molar value. Where “and” joins values, the source holds several entries; their conditions need not be identical. Equal values may be shown once. Read-outs that look alike come from different tables or passages of the source.
# Experiments:
# Assay in all cases: nanoBRET off-target validation
# Assay type in all cases: cell-based
# [1] = molecular target: T1, CLK1 (Homo sapiens, UniProt P49759); conditions: CLK1, two replicates
# T1 construct: host or cells: HEK293T (ATCC CRL-3216)
# T1 sequence (P49759 whole entry): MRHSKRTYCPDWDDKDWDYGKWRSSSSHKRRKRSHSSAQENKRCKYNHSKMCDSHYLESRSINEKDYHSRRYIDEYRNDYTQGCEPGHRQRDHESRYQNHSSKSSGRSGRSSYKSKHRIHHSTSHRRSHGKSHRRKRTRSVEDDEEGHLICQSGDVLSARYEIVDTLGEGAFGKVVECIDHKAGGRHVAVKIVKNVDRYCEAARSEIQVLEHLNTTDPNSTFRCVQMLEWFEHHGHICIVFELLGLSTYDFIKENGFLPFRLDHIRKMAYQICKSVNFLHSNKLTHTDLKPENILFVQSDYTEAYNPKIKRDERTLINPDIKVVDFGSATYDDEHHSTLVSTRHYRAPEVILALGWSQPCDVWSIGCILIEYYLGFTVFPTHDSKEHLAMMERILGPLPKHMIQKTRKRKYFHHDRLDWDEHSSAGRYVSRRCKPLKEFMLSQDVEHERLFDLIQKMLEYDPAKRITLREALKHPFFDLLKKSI
# Procedure: (§1) The assay was performed as described previously ([61]). In brief, full-length kinases as listed in table S6 were obtained as plasmids cloned in frame with terminal NanoLuc-fusion (gift from Promega; table S6). […] Serially diluted inhibitor and corresponding tracer as listed in table S6 at the Tracer KD concentration taken from TracerDB (tracerdb.org) ([62]) were pipetted into white 384-well plates (Greiner, 781207) using an ECHO acoustic dispenser (Labcyte). The corresponding protein-transfected cells were added and reseeded at a density of 2 × 10^5 cells/ml after trypsinization and resuspending in Opti-MEM without phenol red (Life Technologies). The system was allowed to equilibrate for 3 hours at 37°C/5% CO2 before bioluminescence resonance energy transfer (BRET) measurements. To measure BRET, NanoBRET NanoGlo Substrate + extracellular NanoLuc Inhibitor (Promega, N2540) was added as per the manufacturer’s protocol, and filtered luminescence was measured on a PHERAstar plate reader (BMG Labtech) equipped with a luminescence filter pair [450-nm BP filter (donor) and 610-nm LP filter (acceptor)]. […] (For step-by-step protocol, see www.eubopen.org/sites/www.eubopen.org/files/attachments/2021/NanoBRET-IC50_v1_0.pdf.)
# [2] = molecular target: T2, CDKL1 (Homo sapiens, UniProt Q00532)
# T2 construct: host or cells: HEK293T (ATCC CRL-3216)
# T2 sequence (Q00532 whole entry): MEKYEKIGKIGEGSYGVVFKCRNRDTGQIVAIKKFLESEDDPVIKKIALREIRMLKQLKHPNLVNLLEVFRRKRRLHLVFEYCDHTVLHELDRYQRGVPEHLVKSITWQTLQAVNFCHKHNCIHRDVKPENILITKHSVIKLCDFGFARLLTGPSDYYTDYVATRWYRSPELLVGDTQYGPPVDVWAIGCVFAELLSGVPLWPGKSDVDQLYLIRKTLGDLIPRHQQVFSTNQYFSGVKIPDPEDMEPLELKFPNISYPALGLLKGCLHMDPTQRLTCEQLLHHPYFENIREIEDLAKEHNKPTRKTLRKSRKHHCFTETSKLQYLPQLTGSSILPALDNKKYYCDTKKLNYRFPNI
# Procedure: as §1
# [3] = molecular target: T3, SLK (Homo sapiens, UniProt Q9H2G2)
# T3 construct: host or cells: HEK293T (ATCC CRL-3216)
# T3 sequence (Q9H2G2 whole entry): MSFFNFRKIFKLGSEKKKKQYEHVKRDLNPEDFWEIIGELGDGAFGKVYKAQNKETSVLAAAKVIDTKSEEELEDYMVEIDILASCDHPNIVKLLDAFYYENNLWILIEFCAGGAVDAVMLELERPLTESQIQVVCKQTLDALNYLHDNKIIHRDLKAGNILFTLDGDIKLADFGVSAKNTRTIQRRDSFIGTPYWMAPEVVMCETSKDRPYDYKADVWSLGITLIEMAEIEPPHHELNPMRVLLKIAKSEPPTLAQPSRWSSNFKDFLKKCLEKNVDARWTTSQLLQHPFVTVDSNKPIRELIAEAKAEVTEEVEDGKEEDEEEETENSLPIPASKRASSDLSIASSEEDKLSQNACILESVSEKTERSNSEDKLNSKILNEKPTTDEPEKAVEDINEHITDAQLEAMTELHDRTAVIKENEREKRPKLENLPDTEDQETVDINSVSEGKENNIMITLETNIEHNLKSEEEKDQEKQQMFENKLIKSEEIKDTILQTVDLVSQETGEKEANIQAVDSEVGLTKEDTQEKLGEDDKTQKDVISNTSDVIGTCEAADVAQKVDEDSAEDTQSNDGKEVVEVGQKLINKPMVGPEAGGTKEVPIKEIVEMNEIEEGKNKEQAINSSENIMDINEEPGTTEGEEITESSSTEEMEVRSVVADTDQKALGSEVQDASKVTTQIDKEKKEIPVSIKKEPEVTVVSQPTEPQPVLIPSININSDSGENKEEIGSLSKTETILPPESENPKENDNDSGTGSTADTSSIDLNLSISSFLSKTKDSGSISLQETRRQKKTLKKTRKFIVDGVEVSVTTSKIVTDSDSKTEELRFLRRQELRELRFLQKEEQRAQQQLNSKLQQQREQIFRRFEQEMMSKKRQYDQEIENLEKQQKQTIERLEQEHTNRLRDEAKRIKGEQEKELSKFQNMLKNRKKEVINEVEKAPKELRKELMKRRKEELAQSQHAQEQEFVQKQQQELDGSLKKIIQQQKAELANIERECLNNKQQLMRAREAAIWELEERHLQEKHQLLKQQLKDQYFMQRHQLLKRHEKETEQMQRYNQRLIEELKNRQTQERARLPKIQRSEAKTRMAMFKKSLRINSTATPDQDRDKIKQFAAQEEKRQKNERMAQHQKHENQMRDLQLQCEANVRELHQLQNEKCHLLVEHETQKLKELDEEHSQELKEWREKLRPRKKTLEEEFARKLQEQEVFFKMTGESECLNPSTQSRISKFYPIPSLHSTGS
# Procedure: as §1
smiles,measurement,setting,value
CCSc1nc(NC)c2c(-c3cccc(NC(=O)Nc4cc(C(C)(C)C)nn4-c4ccc(C)cc4)c3)c[nH]c2n1 [Compound 32],nanoBRET response normalized to 0% (no tracer) and 100% (no inhibitor) control,"[1]; inhibitor 250 nM, listed as RN341, […]",91.8848%
same,normalized NanoBRET tracer signal at […],"[1]; inhibitor 250 nM, read-out: nanoBRET response normalized to 0% (no tracer) and 100% (no inhibitor) control",93.8%
same,nanoBRET response normalized to 0% (no tracer) and 100% (no inhibitor) control,"[1]; inhibitor 500 nM, listed as RN341, 0.5 µM",89.5722%
same,normalized NanoBRET tracer signal at 0.5 µM,"[1]; inhibitor 500 nM, read-out: nanoBRET response normalized to 0% (no tracer) and 100% (no inhibitor) control",87.8%
same,nanoBRET response normalized to 0% (no tracer) and 100% (no inhibitor) control,"[1]; inhibitor 2500 nM, listed as RN341, […]",66.5911%
same,normalized NanoBRET tracer signal at […],"[1]; inhibitor 2500 nM, read-out: nanoBRET response normalized to 0% (no tracer) and 100% (no inhibitor) control",70.4%
same,nanoBRET response normalized to 0% (no tracer) and 100% (no inhibitor) control,"[1]; inhibitor 5000 nM, listed as RN341, 5 µM",68.3349%
same,normalized NanoBRET tracer signal at 5 µM,"[1]; inhibitor 5000 nM, read-out: nanoBRET response normalized to 0% (no tracer) and 100% (no inhibitor) control",62%
same,nanoBRET response normalized to 0% (no tracer) and 100% (no inhibitor) control,"[1]; inhibitor 25000 nM, listed as RN341, 25 µM",18.5705%
same,normalized NanoBRET tracer signal at 25 µM,"[1]; inhibitor 25000 nM, read-out: nanoBRET response normalized to 0% (no tracer) and 100% (no inhibitor) control",17.2%
same,pEC50,[2],4.77
same,remaining activity at 0.008 µM,"[2]; CDKL1, inhibitor 8 nM, two replicates, read-out: nanoBRET response normalized to 0% (no tracer) and 100% (no inhibitor) control",102% and 110%
same,nanoBRET response normalized to 0% (no tracer) and 100% (no inhibitor) control,"[2]; CDKL1, inhibitor 16 nM, two replicates, listed as RN341, 0.016 µM",102.251%
same,remaining activity at 0.016 µM,"[2]; CDKL1, inhibitor 16 nM, two replicates, read-out: nanoBRET response normalized to 0% (no tracer) and 100% (no inhibitor) control",96.8%
same,remaining activity at 0.05 µM,"[2]; CDKL1, inhibitor 50 nM, two replicates, read-out: nanoBRET response normalized to 0% (no tracer) and 100% (no inhibitor) control",106% and 102%
same,nanoBRET response normalized to 0% (no tracer) and 100% (no inhibitor) control,"[2]; CDKL1, inhibitor 250 nM, two replicates, listed as RN341, […]",106.285%
same,remaining activity at […],"[2]; CDKL1, inhibitor 250 nM, two replicates, read-out: nanoBRET response normalized to 0% (no tracer) and 100% (no inhibitor) control",116%
same,nanoBRET response normalized to 0% (no tracer) and 100% (no inhibitor) control,"[2]; CDKL1, inhibitor 500 nM, two replicates, listed as RN341, 0.5 µM",96.8094%
same,remaining activity at 0.5 µM,"[2]; CDKL1, inhibitor 500 nM, two replicates, read-out: nanoBRET response normalized to 0% (no tracer) and 100% (no inhibitor) control",106%
same,nanoBRET response normalized to 0% (no tracer) and 100% (no inhibitor) control,"[2]; CDKL1, inhibitor 2500 nM, two replicates, listed as RN341, […]",88.1398%
same,remaining activity at […],"[2]; CDKL1, inhibitor 2500 nM, two replicates, read-out: nanoBRET response normalized to 0% (no tracer) and 100% (no inhibitor) control",91%
same,nanoBRET response normalized to 0% (no tracer) and 100% (no inhibitor) control,"[2]; CDKL1, inhibitor 5000 nM, two replicates, listed as RN341, 5 µM",77.8643%
same,remaining activity at 5 µM,"[2]; CDKL1, inhibitor 5000 nM, two replicates, read-out: nanoBRET response normalized to 0% (no tracer) and 100% (no inhibitor) control",74.8%
same,nanoBRET response normalized to 0% (no tracer) and 100% (no inhibitor) control,"[2]; CDKL1, inhibitor 25000 nM, two replicates, listed as RN341, 25 µM",39.2489%
same,remaining activity at 25 µM,"[2]; CDKL1, inhibitor 25000 nM, two replicates, read-out: nanoBRET response normalized to 0% (no tracer) and 100% (no inhibitor) control",46.9%
same,pEC50,[3],< 4.70
same,nanoBRET response normalized to 0% (no tracer) and 100% (no inhibitor) control,"[3]; SLK, inhibitor 8 nM, two replicates, listed as RN341, 0.008 µM",107.417%
same,NanoBRET tracer signal (% of no-inhibitor control) at 0.008 µM,"[3]; SLK, inhibitor 8 nM, two replicates, read-out: nanoBRET response normalized to 0% (no tracer) and 100% (no inhibitor) control",106%
same,nanoBRET response normalized to 0% (no tracer) and 100% (no inhibitor) control,"[3]; SLK, inhibitor 16 nM, two replicates, listed as RN341, 0.016 µM",115.381%
same,NanoBRET tracer signal (% of no-inhibitor control) at 0.016 µM,"[3]; SLK, inhibitor 16 nM, two replicates, read-out: nanoBRET response normalized to 0% (no tracer) and 100% (no inhibitor) control",113%
same,NanoBRET tracer signal (% of no-inhibitor control) at 0.05 µM,"[3]; SLK, inhibitor 50 nM, two replicates, read-out: nanoBRET response normalized to 0% (no tracer) and 100% (no inhibitor) control",102% and 106%
same,nanoBRET response normalized to 0% (no tracer) and 100% (no inhibitor) control,"[3]; SLK, inhibitor 250 nM, two replicates, listed as RN341, […]",119.576%
same,NanoBRET tracer signal (% of no-inhibitor control) at […],"[3]; SLK, inhibitor 250 nM, two replicates, read-out: nanoBRET response normalized to 0% (no tracer) and 100% (no inhibitor) control",107%
same,nanoBRET response normalized to 0% (no tracer) and 100% (no inhibitor) control,"[3]; SLK, inhibitor 500 nM, two replicates, listed as RN341, 0.5 µM",122.526%
same,NanoBRET tracer signal (% of no-inhibitor control) at 0.5 µM,"[3]; SLK, inhibitor 500 nM, two replicates, read-out: nanoBRET response normalized to 0% (no tracer) and 100% (no inhibitor) control",118%
same,nanoBRET response normalized to 0% (no tracer) and 100% (no inhibitor) control,"[3]; SLK, inhibitor 2500 nM, two replicates, listed as RN341, […]",114.832%
same,NanoBRET tracer signal (% of no-inhibitor control) at […],"[3]; SLK, inhibitor 2500 nM, two replicates, read-out: nanoBRET response normalized to 0% (no tracer) and 100% (no inhibitor) control",117%
same,nanoBRET response normalized to 0% (no tracer) and 100% (no inhibitor) control,"[3]; SLK, inhibitor 5000 nM, two replicates, listed as RN341, 5 µM",116.499%
same,NanoBRET tracer signal (% of no-inhibitor control) at 5 µM,"[3]; SLK, inhibitor 5000 nM, two replicates, read-out: nanoBRET response normalized to 0% (no tracer) and 100% (no inhibitor) control",105%
same,nanoBRET response normalized to 0% (no tracer) and 100% (no inhibitor) control,"[3]; SLK, inhibitor 25000 nM, two replicates, listed as RN341, 25 µM",86.6362%
same,NanoBRET tracer signal (% of no-inhibitor control) at 25 µM,"[3]; SLK, inhibitor 25000 nM, two replicates, read-out: nanoBRET response normalized to 0% (no tracer) and 100% (no inhibitor) control",83.9%
